According to patent US11472816B2, “Mcl-1 inhibitors and methods of use thereof” (AstraZeneca AB, priority 2016, dated 2022):

What was measured:
MV-4-11 tumor = assay: In vivo efficacy in MV-4-11 human acute myeloid leukemia subcutaneous tumor model; design: species or system C.B-17 SCID female mice
Protocol: Method: Example 2 was formulated in 30% 2-Hydroxypropyl-beta-cyclodextrin (HPBCD), pH 9 and dosed as a single intravenous (iv) administration in a volume of 5 ml/kg. 10^6 MV-4-11 tumor cells were injected subcutaneously in the right flank of C.B-17 SCID female mice in a volume of 0.1 mL. Tumor volumes (measured by caliper), animal body weight, and tumor conditions were recorded twice weekly for the duration of the study. Tumor volumes (measured by caliper) were calculated using the formula: length (mm)×width (mm)^2[…]. For efficacy studies, mice were randomized based on tumor volumes and growth inhibition was assessed by comparison of the differences in tumor volume between control and treated groups. Dosing began when mean tumor size reached approximately 230 mm^3.

NCI-H929 tumor = assay: In vivo combination efficacy in NCI-H929 human multiple myeloma subcutaneous tumor model; design: species or system C.B-17 SCID female mice; conditions: either agent alone (Example 2 30 mg/kg every other week; bortezomib 1 mg/kg weekly), NCI-H929 tumor bearing mice
Protocol: Method: Example 2 was formulated in 30% 2-Hydroxypropyl-beta-cyclodextrin (HPBCD), pH 9 and dosed as intravenously (iv) in a volume of 5 ml/kg. 5×10^6 MOLP-8 tumor cells or 10^7 NCI-H929 tumor cells were injected subcutaneously in the right flank of C.B-17 SCID female mice in a volume of 0.1 mL. Tumor volumes (measured by caliper) were calculated using the formula: length (mm)×width (mm)^2[…]. For efficacy studies, mice were randomized based on tumor volumes and growth inhibition was assessed by comparison of the differences in tumor volume between control and treated groups. Dosing began when mean tumor size reached approximately 160 mm^3 for MOLP-8 and approximately 230 mm^3 for NCI-H929.

Row | Compound | mice remaining tumor free (MV-4-11 tumor; once weekly iv 30 mg/kg, 16 days after initiation of therapy) | mice remaining tumor free (MV-4-11 tumor; single iv dose of 100 mg/kg, 16 days after therapy) | anti-tumor activity, agent alone (NCI-H929 tumor)
1 | Cc1c2c(nn1C)CSCc1cc(n(C)n1)CSc1cc(c3ccccc3c1)OCCCc1c(C(=O)O)n(C)c3c-2c(Cl)ccc13 (atropisomer, axis not shown; (Ra)) [Example 2, (Ra)-(+)-17-chloro-5,13,14,22-tetramethyl-28-oxa-2,9-dithia-5,6,12,13,22-pentaazaheptacyclo[27.7.1.1^4,7.0^11,15.0^16,21.0^20,24.0^30,35]octatriaconta-1(37),4(38),6,11,14,16,18,20,23,29,31,33,35-tridecaene-23-carboxylic acid] | 1 of 6 | 4 of the 6 | no significant anti-tumor activity
2 | CC(C)C[C@H](NC(=O)[C@H](Cc1ccccc1)NC(=O)c1cnccn1)B(O)O [bortezomib, reference compound] |  |  | no significant anti-tumor activity
